Results published in US9416099B2 (priority 2010, dated 2016).
Where “and” joins values, the source holds several entries; their conditions need not be identical. Equal values may be shown once.

How the values were obtained:
[1] = test system: Pseudomonas aeruginosa; format: cell-based
[2] = test system: Staphylococcus aureas; format: cell-based
[3] = test system: Pseudomonas aeruginosa and Staphylococcus aureas; format: cell-based
[4] = format: physicochemical

Molecule | % Kill, Pseudomonas aeruginosa, 400 ppm [1] [%] | % Kill, Pseudomonas aeruginosa, DI water [1] [%] | % Kill, Staphylococcus aureas, 400 ppm [2] [%] | % Kill, Staphylococcus aureas, DI water [2] [%] | Overall Rating [3] | Adjuvant 1 h, mL separation [mL] | Anionic 1 h, mL separation [mL] | Nonionic 1 h, mL separation [mL] | Adjuvant 24 h, mL separation [mL] | Anionic 24 h, mL separation [mL] | Nonionic 24 h, mL separation [mL] | % Separation 1 h [4] | % Separation 24 h [4]
C[N+](C)(C)CCCNC(=O)CCCCCCC/C=C/CCCCCCCC(=O)NCCC[N+](C)(C)CC(=O)O [C18-38, C18 DiDMAPA Betaine Quat] | 18.8 | 42.2 | 30.3 | 57.4 | good | – | – | – | – | – | – | – | –
COC(=O)CCCCCCC/C=C/CCCCCCCC(=O)NCCC[N+](C)(C)CC(=O)[O-] [Mix-48, C18 Ester DMAPA Betaine] | – | – | – | – | – | 0 | 0 | 0 | 0 | 0 | 0.5 | – | –
C[N+](C)([O-])CCCNC(=O)CCCCCCC/C=C/CCCCCCCC(=O)NCCC[N+](C)(C)CC(=O)[O-] [C18-37, C18 DiDMAPA Betaine AO] | – | – | – | – | – | 0 | 0 | 0 | 0 | 0 | – | – | –
C[N+](C)(C)CCCNC(=O)CCCCCCCCC(CCCCCCCC(=O)NCCC[N+](C)(C)C)S(=O)(=O)O.[Na+] (centres unmarked) [C18-28, C18 DiDMAPA DiQuat Sulfonate] | – | – | – | – | – | 0 | 0 | – | 0 | 0 | – | 4% and 3.4% | 4.5% and 3.9%
C[N+](C)(CCCNC(=O)CCCCCCC/C=C/CCCCCCCC(=O)NCCC[N+](C)(C)Cc1ccccc1)Cc1ccccc1.[Cl-].[Cl-] [Mix-65, C18 DiDMAPA Benzyl Quat] | 26.1 | 30.5 | 22.1 | 55.3 | good | – | – | – | – | – | – | – | –
C=CCCCCCCCC[N+](C)(C)C [C10-42, C10 Amine DMS Quat] | – | – | – | – | – | 0 | 0 | – | 0 | 0 | – | – | –
CCCCCC/C=C/CCCCCCCC[N+](C)(C)Cc1ccccc1 [C16-17, C16 Amine Benzyl Quat] | 39.4 | 42.6 | 42.5 | 48.1 | superior | – | – | – | – | – | – | – | –
C=CCCCCCCCC(=O)NCCC[N+](C)(C)CC(O)CS(=O)(=O)[O-] (centres unmarked) [C10-24, C10 DMAPA Sulfobetaine] | – | – | – | – | – | 0 | 0 | 0.5 | 0 | 0 | 0.5 | – | –
C[N+](C)(CCCNC(=O)CCCCCCCC=CCCCCCCCC(=O)NCCC[N+](C)(C)CC(=O)[O-])CC(=O)[O-] (mixture of isomers) [Mix-32, C18 DiBetaine] | – | – | – | – | – | 0 | 0 | 0 | 0 | 0 | – | – | –
C[N+](C)(C)CCCNC(=O)CCCCCCC/C=C/CCCCCCCC(=O)NCCC[N+](C)(C)[O-] [C18-35, C18 DiDMAPA Quat AO] | 34.4 | 29.3 | 35.7 | 55.1 | good | – | – | – | – | – | – | – | –
C=CCCCCCCCC(=O)NCCC[N+](C)(C)Cc1ccccc1.[Cl-] [C10-31, C10 DMAPA Benzyl Quat] | 47.4 | 47.5 | 65.5 | 79.7 | superior | – | – | – | – | – | – | – | –
CC/C=C/CCCCCCCC(=O)NCCC[N+](C)(C)CC(=O)[O-] [C12-22, C12 DMAPA Betaine] | – | – | – | – | – | 0 | 0 | 0 | 0 | 0 | – | – | –
C[N+](C)(C)CCCNC(=O)CCCCCCC/C=C/CCCCCCCC(=O)NCCC[N+](C)(C)[O-] [Mix-35, C18 DiDMAPA Quat AO] | 22.1 | 31.4 | 20.9 | 55.6 | good | 0 | 0 | 5 | 0 | 0 | 1 | – | –
C=CCCCCCCCC(=O)NCCC[N+](C)(C)C [C10-18, C10 DMAPA Quat] | 28.9 | 29.6 | 71.8 | 75.9 | good | – | – | – | – | – | – | – | –
CCCCCC/C=C/CCCCCCCC(=O)NCCC[N+](C)(C)CC(=O)[O-] [C16-13, C16 DMAPA Betaine] | – | – | – | – | – | – | 0 | – | – | 0.25 | – | – | –
CN(C)CCCNC(=O)CCCCCCC/C=C/CCCCCCCC(=O)NCCC[N+](C)(C)CC(=O)[O-] [Mix-36, C18 DiDMAPA MonoBetaine] | – | – | – | – | – | – | 0 | 0 | – | 0 | 0 | – | –
CN(C)CCCNC(=O)CCCCCCC/C=C/CCCCCCCC(=O)NCCC[N+](C)(C)CC(=O)[O-] [C18-36, C18 DiDMAPA MonoBetaine] | – | – | – | – | – | 0 | 0 | 0 | 0 | 0 | – | – | –
CC/C=C/CCCCCCCC[N+](C)(C)Cc1ccccc1 [C12-27, C12 Amine Benzyl Quat] | 59.5 | 51.2 | 63.5 | 46.0 | good | 0 | 0 | – | 0 | 0 | – | – | –
C[N+](C)(C)CCCNC(=O)CCCCCCC/C=C/CCCCCCCC(=O)NCCC[N+](C)(C)C [C18-27, C18 DiDMAPA DiQuat] | 19.8 | 38.9 | 17.7 | 55.4 | good | – | – | – | – | – | – | – | –
C=CCCCCCCCC(=O)NCCC[N+](C)(C)CC(=O)[O-] [C10-22, C10 DMAPA Betaine] | – | – | – | – | – | 0 | 0 | – | 0 | 0 | 0.5 | – | –
C[N+](C)([O-])CCCNC(=O)CCCCCCC/C=C/CCCCCCCC(=O)NCCC[N+](C)(C)CC(=O)[O-] [Mix-37, C18 DiDMAPA Betaine AO] | – | – | – | – | – | – | 0 | 0 | 0.5 | – | 0 | – | –
C[N+](C)(C)CCCNC(=O)CCCCCCC/C=C/CCCCCCCC(=O)NCCC[N+](C)(C)CC(=O)O [Mix-38, C18 DiDMAPA Betaine Quat] | – | – | – | – | – | 0.5 | – | 0 | 0.5 | – | 0 | – | –
CN(C)CCCNC(=O)CCCCCCC/C=C/CCCCCCCC(=O)NCCC[N+](C)(C)C [Mix-34, C18 DiDMAPA MonoQuat] | 24.1 | 47.5 | 28.6 | 57.5 | good | – | – | – | – | – | – | – | –
C[N+](C)(C)CCCNC(=O)CCCCCCC/C=C/CCCCCCCC(=O)NCCC[N+](C)(C)C [Mix-27, C18 DiDMAPA DiQuat] | 23.2 | 52.4 | 23.2 | 56.1 | good | 0 | 0 | 0 | 0 | 0 | 0 | – | –
C[N+](C)(CCCNC(=O)CCCCCCC/C=C/CCCCCCCC(=O)NCCC[N+](C)(C)CC(O)CS(=O)(=O)[O-])CC(O)CS(=O)(=O)[O-] (centres unmarked) [Mix-31, C18 DiSulfobetaine] | – | – | – | – | – | 0 | 0 | 0 | 0 | 0 | – | – | –
calcium alkylbenzenesulfonate [Control 1, reference compound] | – | – | – | – | – | – | – | – | – | – | – | <0.2% | 1.3%
CC/C=C/CCCCCCCC(=O)NCCC[N+](C)(C)C [C12-18] | 40.5 | 58.7 | 66.3 | 42.4 | good | – | – | – | – | – | – | – | –
C[N+](C)(CCCNC(=O)CCCCCCC/C=C/CCCCCCCC(=O)NCCC[N+](C)(C)Cc1ccccc1)Cc1ccccc1.[Cl-].[Cl-] [C18-65, C18 DiDMAPA Benzyl Quat] | 24.7 | 30.4 | 20.6 | 55.6 | good | – | – | – | – | – | – | – | –
CC/C=C/CCCCCCCC(=O)NCCC[N+](C)(C)CC(O)CS(=O)(=O)[O-] (centres unmarked) [C12-24, C12 DMAPA Sulfobetaine] | – | – | – | – | – | 0 | 0 | 0.25 | 0 | 0 | 1 | – | –
